According to patent US20040116448A1, “Substances for the therapy of diseases caused by highly proliferating cells” (priority 2001, published 2004):

What was measured:
BJAB cells [1] = experiment: Mitochondrial membrane potential (JC-1 staining) in BJAB cells; format: cell-based
Protocol: (§1) Further studies had the result that the BJAB cells are driven to the mitochondrial apoptosis signal pathway by JV-206-1. […] In addition, the fragmentation of the DNA was measured as a specific characteristic of apoptosis as described by Essmann et al. (2000). […] In these experiments, the proportion of apoptotic cells was between 20% and 48% of the total population, depending on the concentration and incubation time.

BJAB cells [2] = experiment: DNA fragmentation (propidium iodide staining, flow cytometry) apoptosis assay in BJAB cells; format: cell-based; settings: 20 μM
Protocol: The measurement of apoptosis is based on a method which detects the fragmentation of DNA on the level of individual cells, which is typical of apoptosis and distinguishes this form of cell death from necrosis. Thus, BJAB cells were treated with different concentrations of N76 or N69 for 24 h. Controls contained corresponding amounts of the solubilizer ethanol. After the treatment, the fragmentation of DNA was measured by staining with propidium iodide followed by quantification by flow cytometry as described by Essmann et al. (2000). The values are stated as % of apoptotic cells based on the total population±SD (n=3).
as §1

BJAB cells [3] = experiment: Cell death of BJAB cells after incubation with JV-206-1 (FIG. 6A); format: cell-based; settings: incubation for 48 hours
Protocol: as §1

[4] = test system: lymphoblasts from children afflicted with acute lymphoblastic leukemia (ALL); experiment: DNA fragmentation apoptosis assay in primary lymphoblasts from children with acute lymphoblastic leukemia (ALL); format: cell-based, human; settings: 25 μM, 36 h
Protocol: In this experiment, lymphoblasts from children afflicted with acute lymphoblastic leukemia (ALL) were isolated and, after dilution with cell culture medium, treated for 36 h with 25 μM N76, 25 μM N69 or with 9 μM epirubicin (E) as a positive control. Controls contained corresponding amounts of the solubilizer ethanol. After the treatment, the fragmentation of the DNA was measured by staining with propidium iodide followed by quantification by flow cytometry as described by Essmann et al. (2000). The values are stated as % of apoptotic cells based on the total population±SD (n=3).
Thus, with N76 and N69, two substances of general structural formula 2 are provided as effective agents against certain tumor cells, especially those of childhood ALL, but also against other malignant diseases of different origin. […] In these experiments, the cells from eleven ALL patients were isolated and, after dilution with cell culture medium, treated for 36 h with 25 μM N69, 25 μM N76 or corresponding amounts of cytarabin (AraC), fludarabin or doxorubicin. […] After the treatment, the fragmentation of the DNA was measured by staining with propidium iodide followed by quantification by flow cytometry as described by Essmann et al. (2000). P values were calculated from a paired t test and are stated in FIG. 4 directly for the individual pairs to be compared. […]

BIAB cells = experiment: Combined proliferation and cell death assay (Neubauer cell counting, trypan blue staining); format: cell-based; settings: 25 μM, after 24 h
Protocol: To further characterize the role of the various components of the newly described substances, the iron-complexed compound N69 and the compound obtainable from N69 by cleaving the Fe(CO)3 group were prepared and employed in a combined proliferation and cell death assay. Thus, BIAB cells were treated for 24 h and 72 h. with different concentrations of N69 or the corresponding compound lacking the iron complex. Controls contained corresponding amounts of the solubilizer ethanol. After the treatment, the number of cells was counted in a Neubauer counting chamber, and the number of dead cells was counted by trypan blue staining as described by Wieder et al. (1995). […] FIG. 5B states the proportion of dead cells in %±SD (n=3) as determined at these times at the respective concentration. […] As can be easily seen, the complexed iron plays an important role in the cell-death inducing activity of the substances. The complexed iron shifts the dose-effect curve of the cell-death inducing effect of N69 towards lower concentrations.

[5] = test system: cells from patients suffering from different leukemias; experiment: DNA fragmentation apoptosis assay in cells from patients suffering from different leukemias; format: cell-based, human; settings: 25 μmol/l, 36 h
Protocol: The usefulness of substances according to the invention for the therapy of various malignant diseases of the hematopoetic system was tested on cells from patients suffering from different diseases. Thus, cells from patients suffering from different leukemias were isolated and, after dilution with cell culture medium, treated for 36 h with 25 μM N69. Controls contained corresponding amounts of the solubilizer ethanol. After the treatment, the fragmentation of the DNA was measured by staining with propidium iodide followed by quantification by flow cytometry as described by Essmann et al. (2000). The result can be seen in FIG. 3. The measured values are stated as % of apoptotic cells based on the total population and represent the mean value from duplicate experiments.

Row | Compound | fraction of cells having a reduced mitochondrial membrane potential (ΔΨm) (BJAB cells [1]) | cell death by apoptosis (DNA fragmentation) (BJAB cells [2]) | induction of cell death (BJAB cells [3]) | pro-apoptotic effect in vitro towards primary ALL cells compared to established cytostatic agents ([4]; cells from eleven ALL patients, versus doxorubicin, cytarabin and fludarabin-5′ dihydrogenphosphate, paired t test) | induction of apoptosis in vitro in therapy-resistant cells of patients ([4]; ALL lymphoblasts, in contrast to 9 μM epirubicin (positive control)) | proportion of dead cells (trypan blue) (BIAB cells) | induction of apoptotic cell death ([5]; cells from patients suffering from acute myeloblastic leukemia (AML)) | induction of apoptotic cell death ([5]; cells from patients suffering from chronic myeloblastic leukemia (CML)) | induction of apoptotic cell death ([5]; cells from patients with a first manifestation of ALL) | induction of apoptotic cell death ([5]; cells from patients with a recurrence of acute lymphoblastic leukemia (ALL-Rez))
1 | CCOC(=O)C=CC1=C[C@H](n2cc(Br)c(=O)[nH]c2=O)C[C@H]1CO[Si](C)(C)C(C)(C)C(C)C.O=[C]=[Fe](=[C]=O)=[C]=O (racemic) [JV-206-1, (3RS,5RS)-3-[3-(5-bromo-2,4-dioxo-3,4-dihydro-2H-pyrimidin-1-yl)-5-[dimethyl-(1,1,2-trimethylpropyl)silanyloxymethyl]-cyclopent-1-enyl]acrylic-acid-ethyl-estertricarbonyliron] | concentration-dependent increase | major part of the cells die | induces cell death |  |  |  |  |  |  | 
2 | exo-[2′,2″,3′,3″-η-(3′-(3″-(E)-acrylic-acid-ethyl-ester-3″-yl)-2′,3′-didehydro-2′,3′-dideoxy-5′-O-(dimethylthexylsilyl)-β-D-cytidine)]tricarbonyliron [N69] |  |  |  | significantly better pro-apoptotic effect | induce apoptosis | about 90% | induces apoptotic cell death | induces apoptotic cell death | induces apoptotic cell death | induces apoptotic cell death
